According to the supplement of paper PMC11061612:

How the values were obtained:
Assay in all cases: combination Emax (second highest fraction inhibited in the dose matrix, 72 h); higher = more inhibition; extreme values may be limits of the assay
[1] = system: BFTC-905 (Bladder Carcinoma)
Outline: (§1)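 Bliss excess equals the observed combination effect minus the expected value EA + EB − EA·EB, where EA and EB are the effects of each agent alone. Combination Emax is the second-highest inhibition within the matrix. Inhibition was scaled from CellTiter-Glo 2.0 luminescence, with 0 set by vehicle wells and 1 by blank wells, after 72 hours of two-drug dosing of cells plated in 1536-well plates.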

TC-71 (Ewing's Sarcoma) = system: TC-71 (Ewing's Sarcoma)
Outline: as §1

[2] = system: MOLT-16 (T-Lymphoblastic Leukemia)
Outline: as §1

NCI-H2818 (Mesothelioma) = system: NCI-H2818 (Mesothelioma)
Outline: as §1

[3] = system: EVSA-T (Breast Carcinoma)
Outline: as §1

[4] = system: COLO-678 (Colorectal Carcinoma)
Outline: as §1

[5] = system: DND-41 (T-Lymphoblastic Leukemia)
Outline: as §1

ES1 (Ewing's Sarcoma) = system: ES1 (Ewing's Sarcoma)
Outline: as §1

MEL-JUSO (Melanoma) = system: MEL-JUSO (Melanoma)
Outline: as §1

U251 (Low Grade Glioma) = system: U251 (Low Grade Glioma)
Outline: as §1

WIL2-NS (Non-Cancerous) = system: WIL2-NS (Non-Cancerous)
Outline: as §1

[6] = system: L-540 (Hodgkin's Lymphoma)
Outline: as §1

[7] = system: MFM-223 (Breast Carcinoma)
Outline: as §1

[8] = system: SW1417 (Colorectal Carcinoma)
Outline: as §1

[9] = system: KYSE-180 (Esophageal Squamous Cell Carcinoma)
Outline: as §1

[10] = system: KCL-22 (Chronic Myelogenous Leukemia)
Outline: as §1

LN-18 (Glioblastoma) = system: LN-18 (Glioblastoma)
Outline: as §1

[11] = system: PANC-08-13 (Pancreatic Carcinoma)
Outline: as §1

[12] = system: TOV-112D (Ovarian Carcinoma)
Outline: as §1

[13] = system: P12-ICHIKAWA (T-Lymphoblastic Leukemia)
Outline: as §1

COc1cccc2c1C(=O)c1c(O)c3c(c(O)c1C2=O)C[C@@](O)(C(=O)CO)C[C@@H]3O[C@H]1C[C@H](N)[C@H](O)[C@H](C)O1 [Doxorubicin] + Cc1cc2ncnn2cc1Nc1ncc2c(n1)n(C1CCOCC1)c(=O)n2C [AZD7648] (first compound max 1 µM, 7x7, partner max 10 µM)
combination Emax [1]: 0.974 | combination Emax (TC-71 (Ewing's Sarcoma)): 0.965 | combination Emax [2]: 1 | combination Emax (NCI-H2818 (Mesothelioma)): 0.694 | combination Emax [3]: 0.787 | combination Emax [4]: 0.715 | combination Emax [5]: 0.889 | combination Emax (ES1 (Ewing's Sarcoma)): 1 | combination Emax (MEL-JUSO (Melanoma)): 0.328 | combination Emax (U251 (Low Grade Glioma)): 0.859 | combination Emax (WIL2-NS (Non-Cancerous)): 1 | combination Emax [6]: 0.931 | combination Emax [7]: 0.671 | combination Emax [8]: 0.432 | combination Emax [9]: 0.858 | combination Emax [10]: 0.932 | combination Emax (LN-18 (Glioblastoma)): 0.33 | combination Emax [11]: 0.182 | combination Emax [12]: 0.926

C[C@@H]1COCCN1c1cc(C2([S@](C)(=N)=O)CC2)nc(-c2ccnc3[nH]ccc23)n1 [AZD6738] + O=C(c1cc(Cc2n[nH]c(=O)c3ccccc23)ccc1F)N1CCN(C(=O)C2CC2)CC1 [Olaparib] (first compound max 10 µM, 7x7, partner max 10 µM)
combination Emax [1]: 0.873 | combination Emax (TC-71 (Ewing's Sarcoma)): 0.887 | combination Emax [2]: 1 | combination Emax (NCI-H2818 (Mesothelioma)): 0.45 | combination Emax [3]: 0.346 | combination Emax [4]: 0.159 | combination Emax [5]: 0.947 | combination Emax (ES1 (Ewing's Sarcoma)): 0.99 | combination Emax (MEL-JUSO (Melanoma)): 0.418 | combination Emax (U251 (Low Grade Glioma)): 0.661 | combination Emax (WIL2-NS (Non-Cancerous)): 0.968 | combination Emax [6]: 0.936 | combination Emax [7]: 0.773 | combination Emax [8]: 0.38 | combination Emax [9]: 0.76 | combination Emax [10]: 0.909 | combination Emax (LN-18 (Glioblastoma)): 0.877 | combination Emax [11]: 0.313 | combination Emax [12]: 0.795

C=CCn1c(=O)c2cnc(Nc3ccc(N4CCN(C)CC4)cc3)nc2n1-c1cccc(C(C)(C)O)n1 [AZD1775] + C[C@@H]1COCCN1C2=NC(=NC(=C2)C3(CC3)[S@](=N)(=O)C)C4=C5C=CNC5=NC=C4 [AZD6738] (first compound max 1 µM, partner max 10 µM)
combination Emax [1]: 0.964 | combination Emax (TC-71 (Ewing's Sarcoma)): 0.941 | combination Emax [2]: 1 | combination Emax (NCI-H2818 (Mesothelioma)): 0.475 | combination Emax [3]: 0.483 | combination Emax [4]: 0.199 | combination Emax [5]: 0.929 | combination Emax (ES1 (Ewing's Sarcoma)): 0.948 | combination Emax (MEL-JUSO (Melanoma)): 0.496 | combination Emax (U251 (Low Grade Glioma)): 0.773 | combination Emax (WIL2-NS (Non-Cancerous)): 1 | combination Emax [6]: 0.941 | combination Emax [7]: 0.897 | combination Emax [8]: 0.655 | combination Emax [9]: 0.939 | combination Emax [10]: 1 | combination Emax (LN-18 (Glioblastoma)): 0.736 | combination Emax [11]: 0.373 | combination Emax [12]: 0.764

CN(CCO)CC[C@H](CSc1ccccc1)Nc1ccc(S(=O)(=O)NC(=O)c2ccc(N3CCC([C@@H](O)c4ccccc4-c4ccc(Cl)cc4)CC3)cc2)cc1S(=O)(=O)C(F)(F)F [AZD4320] + CCN(CCO)CCCOc1ccc2c(Nc3cc(CC(=O)Nc4cccc(F)c4)[nH]n3)ncnc2c1 [AZD2811] (first compound max 1 µM, 7x7, partner max 1 µM)
combination Emax [1]: 0.856 | combination Emax [2]: 1 | combination Emax (NCI-H2818 (Mesothelioma)): 0.191 | combination Emax [3]: 0.704 | combination Emax [4]: 0.456 | combination Emax [13]: 1 | combination Emax [5]: 1 | combination Emax (ES1 (Ewing's Sarcoma)): 0.613 | combination Emax (MEL-JUSO (Melanoma)): 0.446 | combination Emax (U251 (Low Grade Glioma)): 0.42 | combination Emax (WIL2-NS (Non-Cancerous)): 0.311 | combination Emax [6]: 0.594 | combination Emax [7]: 0.693 | combination Emax [8]: 0.759 | combination Emax [9]: 0.181 | combination Emax [10]: 0.556 | combination Emax (LN-18 (Glioblastoma)): 0.584 | combination Emax [11]: 0.422 | combination Emax [12]: 0.485

CCc1c2c(nc3ccc(O)cc13)-c1cc3c(c(=O)n1C2)COC(=O)[C@]3(O)CC [SN-38] + CN(C)CCCOc1ccc(-c2ccc3ncc4c(c3c2)n(C2CCOCC2)c(=O)n4C)cn1 [AZD0156] (first compound max 0.3 µM, 7x7, partner max 1 µM)
combination Emax [1]: 0.957 | combination Emax (TC-71 (Ewing's Sarcoma)): 1 | combination Emax [2]: 1 | combination Emax (NCI-H2818 (Mesothelioma)): 0.499 | combination Emax [3]: 0.421 | combination Emax [4]: 0.268 | combination Emax [5]: 0.934 | combination Emax (ES1 (Ewing's Sarcoma)): 1 | combination Emax (MEL-JUSO (Melanoma)): 0.263 | combination Emax (U251 (Low Grade Glioma)): 0.897 | combination Emax (WIL2-NS (Non-Cancerous)): 1 | combination Emax [6]: 0.951 | combination Emax [7]: 0.243 | combination Emax [8]: 0.662 | combination Emax [9]: 0.411 | combination Emax [10]: 0.921 | combination Emax (LN-18 (Glioblastoma)): 0.617 | combination Emax [11]: 0.131 | combination Emax [12]: 0.965

COc1cccc(OCCCN)c1-c1cc(Nc2cnc(C#N)cn2)n[nH]1 [Prexasertib] + C=CCn1c(=O)c2cnc(Nc3ccc(N4CCN(C)CC4)cc3)nc2n1-c1cccc(C(C)(C)O)n1 [AZD1775] (first compound max 1 µM, partner max 1 µM)
combination Emax [1]: 0.96 | combination Emax (TC-71 (Ewing's Sarcoma)): 1 | combination Emax [2]: 1 | combination Emax (NCI-H2818 (Mesothelioma)): 0.359 | combination Emax [3]: 0.532 | combination Emax [4]: 0.307 | combination Emax [5]: 0.88 | combination Emax (ES1 (Ewing's Sarcoma)): 1 | combination Emax (MEL-JUSO (Melanoma)): 0.747 | combination Emax (U251 (Low Grade Glioma)): 0.783 | combination Emax (WIL2-NS (Non-Cancerous)): 1 | combination Emax [6]: 0.967 | combination Emax [7]: 0.897 | combination Emax [8]: 0.64 | combination Emax [9]: 0.983 | combination Emax [10]: 0.997 | combination Emax (LN-18 (Glioblastoma)): 0.807 | combination Emax [11]: 0.544 | combination Emax [12]: 0.815
